The values below come from US20230338391A1, “TREATMENT FOR DEPRESSION” (TAKEDA PHARMACEUTICAL COMPANY LIMITED, priority 2020, published 2023).

Molecules are shown by their SMILES.

Data set [1] can be described thus: 13-week NHP GLP toxicity study: toxicokinetics. In kind it is in vivo, Monkey (Macaca fascicularis). Conditions: cynomolgus monkey, plasma, oral; range across all TK sampling days (1st, 29th, 90th dosing). The method, then: Blood samples (a target of 0.5 mL each, Na-heparin tubes) were collected from all animals at the following timepoints: • Phase 1: at 4 hours after dosing. • Phase 2: Plasma concentrations of COMPOUND A and its metabolites were determined for all dose groups after the 1st, the 29th dosing and the 90th dosing. Blood collection occurred in each animal in all groups before dosing (at the 29th and 90th dose only) and 1, 2, 4, 8, and 24 hours after dosing. Blood samples were collected into Na-heparin tubes via the implanted catheter or from the jugular, cephalic or femoral vein by venipuncture; tubes were kept on wet ice pending centrifugation. The blood samples were centrifuged at 5400×g for 5 minutes under cooling conditions (set to 4° C.) to obtain the plasma. The plasma was divided into duplicate samples (at least 100 μL each) and was kept on dry ice and stored in a freezer set to −20° C. until shipment. Back-up samples (set 2 of 2) were stored separately from set 1 of 2.
Non-compartmental toxicokinetic analysis was performed by the subcontractor on the plasma concentration data for COMPOUND A, and its metabolites using validated WinNonlin software. The TK parameters (tmax, Cmax, t1/2, MRT24, MRTinf, AUC24 and AUCinf) were calculated for all animals except for the control animals.

Data set [2] has as its system Sprague-Dawley rats. The data set can be described thus: in vivo. The following applies: female, rat, 200 mg/kg/day, 14 days. The method, then: (§1) An appropriate amount of methylcellulose (MC) was weighed and mixed with a small amount of warm water for injection. The mixture was then diluted with water for injection to make a 0.5% (w/v) MC solution. The vehicle was used for dosing in the control group. To make a 40 mg/mL suspension of COMPOUND A, an appropriate amount of the test article was weighed and mixed with the vehicle using a planetary centrifugal mixer and the mixture was then diluted with additional vehicle. The 40 mg/mL suspension was used to make 20 and 10 mg/mL suspensions by stepwise dilutions with the vehicle. The dosing suspensions were stored in a refrigerator (actual values: 3.7° C. to 6.1° C., acceptable range: 2° C. to 8° C.) under light-resistant conditions (tight container) and used within 8 days after preparation.
(§2) Males and females in good condition were selected for this study based on examinations within 4 days before the first dosing. Based on their body weights, animals were stratified and allocated randomly to 3 main study groups, each composed of 18 males and 18 females, and 2 satellite groups each composed of 9 males and 9 females for determination of plasma drug and metabolite concentrations. Surplus animals after animal selection were excluded from the study on the day after the animal selection or the day dosing commenced (Day 1).
(§3) The behavior of the high-dose main study and TK satellite groups was video-recorded continuously throughout the dosing period (until the morning on the day of necropsy) under non-GLP conditions. The video-recorded images were kept on a hard drive and were archived as study data. […]
(§4) Each animal was weighed pre-dose using electronic balances (PB3002-S; Mettler-Toledo K.K. and UX4200H; Shimadzu Corporation) on Days 1, 2, 4, 7, 11, and 14 during the dosing period. Body weights were also measured for all animals on the day of necropsy on Days 3, 8, and 15, and these terminal body weight values were also used for calculation of the amount of anesthesia. […]

A short description of data set [3]: in vivo. The arrangement: species or system Sprague-Dawley rats. The following applies: both sexes, Sprague-Dawley, rat, po. How it is done:
as §1, §2, §3, §4

The subject of data set [4] is healthy subjects. Briefly: TMS crossover study: safety and tolerability. Conditions: single doses 0.5 mg and 6 mg oral tablets.

With `CC1=CN2CCS(=O)(=O)N=C2C(c2ccc(OC3CCCCC3)cc2)=N1` [COMPOUND A, 9-[4-(Cyclohexyloxy)phenyl]-7-methyl-3,4-dihydropyrazino[2,1-c][1,2,4]thiadiazine 2,2-dioxide], the Tmax (commonly the time at which the peak concentration occurs) in data set [1] was 2 to 15 h. Also, in data set [2], the “cerebellar Purkinje cell histopathology (HE, Fluoro-Jade)” value is on record as “necrosis and/or Fluoro-Jade positive staining of Purkinje cells (dendrites, cell bodies, or axons) in 3 rats” and the “tonic convulsions (video recordings)” value is “tonic convulsions in 2 rats”. Moreover, the NOAEL (commonly the highest dose or exposure tested at which no adverse effect was seen) at 14 days in data set [3] was 100 mg/kg/day. In addition, in data set [4], the “deaths or SAEs” value was “No deaths or SAEs were reported”.
